Measured values as given in ChEMBL document CHEMBL2177051.
The source made the active and inactive calls. The calls are words filed in the database; no cut-off is given here.

How the values were obtained:
Conditions in all cases: Homo sapiens
HEK293 [1] = test: Inhibition of proteasome beta5 in HEK cell lysates at 1 to 100 uM after 1 hr by MV151 competitive SDS-PAGE analysis
HEK293 [2] = test: Inhibition of proteasome beta2 in HEK cell lysates at 1 to 100 uM after 1 hr by MV151 competitive SDS-PAGE analysis
HEK293 [3] = test: Inhibition of proteasome beta1 in HEK cell lysates at 1 to 100 uM after 1 hr by MV151 competitive SDS-PAGE analysis
HEK293 [4] = test: Inhibition of proteasome beta2 in HEK cell at 50 uM after 3 hrs by MV151 competitive SDS-PAGE analysis; assay type: cell-based
HEK293 [5] = test: Inhibition of proteasome beta1 in HEK cell at 50 uM after 3 hrs by MV151 competitive SDS-PAGE analysis; assay type: cell-based
HEK293 [6] = test: Inhibition of proteasome beta5 in HEK cell at 5 uM after 3 hrs by MV151 competitive SDS-PAGE analysis; assay type: cell-based

Which inhibition (HEK293 [1]) does the source give for CC[C@H](C)[C@H](NC(=O)OC(C)(C)C)C(=O)N[C@H](C(=O)N[C@H](C(=O)N[C@@H](CC(C)C)CS(=O)(=O)F)[C@@H](C)OCc1ccccc1)[C@@H](C)CC here?
Its inhibition is “Active”.

And the inhibition (HEK293 [2])?
Its inhibition is “Active”.

And the inhibition (HEK293 [3])?
The inhibition was “Active”.

Which inhibition (HEK293 [1]) does the source give for CC(C)C[C@@H](CS(=O)(=O)F)NC(=O)[C@H](CC(C)C)NC(=O)[C@@H](N)CC(C)C here?
The inhibition was “Active”.

What about the inhibition (HEK293 [2]) of the same molecule?
Its inhibition is “Active”.

What about the inhibition (HEK293 [3]) of the same molecule?
Its inhibition is “Active”.

What does the source list for CC(C)C[C@@H](CS(=O)(=O)F)NC(=O)[C@H](CC(C)C)NC(=O)[C@H](CC(C)C)NC(=O)[C@H](CC(C)C)NC(=O)OCc1ccccc1?
inhibition (HEK293 [4]): Active; inhibition (HEK293 [5]): Active; inhibition (HEK293 [6]): Active; inhibition (HEK293 [1]): Active; inhibition (HEK293 [2]): Active; inhibition (HEK293 [3]): Active

What does the source list for CC[C@H](C)[C@H](NC(=O)OC(C)(C)C)C(=O)N[C@H](C(=O)N[C@@H](CC(C)C)CS(=O)(=O)F)[C@@H](C)OCc1ccccc1?
inhibition (HEK293 [1]): Active; inhibition (HEK293 [2]): Active; inhibition (HEK293 [3]): Active

CC(C)C[C@@H](CS(=O)(=O)F)NC(=O)[C@H](CC(C)C)NC(=O)[C@H](CC(C)C)NC(=O)OCc1ccccc1 was tested. Which inhibition (HEK293 [1]) did it give?
The inhibition was “Active”.

And the inhibition (HEK293 [2])?
Its inhibition is “Active”.

What about the inhibition (HEK293 [3]) of the same molecule?
Its inhibition is “Active”.

CC(C)C[C@@H](CS(=O)(=O)F)NC(=O)[C@H](CC(C)C)NC(=O)[C@H](CC(C)C)NC(=O)OC(C)(C)C was tested. Which inhibition (HEK293 [1]) did it give?
Its inhibition is “Active”.

What about the inhibition (HEK293 [2]) of the same molecule?
The inhibition was “Active”.

And the inhibition (HEK293 [3])?
The inhibition was “Active”.

Which results are given for CC[C@H](C)[C@H](NC(C)=O)C(=O)N[C@H](C(=O)N[C@H](C(=O)N[C@@H](CC(C)C)CS(=O)(=O)F)[C@@H](C)OCc1ccccc1)[C@@H](C)CC?
inhibition (HEK293 [1]): Active; inhibition (HEK293 [2]): Active; inhibition (HEK293 [3]): Active

With CC(C)C[C@@H](CS(=O)(=O)F)NC(=O)[C@@H](N)Cc1ccccc1 as the molecule, how does the inhibition (HEK293 [1]) read?
The inhibition was “inactive”.

And the inhibition (HEK293 [2])?
The inhibition was “inactive”.

What about the inhibition (HEK293 [3]) of the same molecule?
The inhibition was “inactive”.

With CC[C@H](C)[C@H](N)C(=O)N[C@H](C(=O)N[C@H](C(=O)N[C@@H](CC(C)C)CS(=O)(=O)F)[C@@H](C)OCc1ccccc1)[C@@H](C)CC as the molecule, how does the inhibition (HEK293 [1]) read?
The inhibition was “Active”.

And the inhibition (HEK293 [2])?
The inhibition was “Active”.

And the inhibition (HEK293 [3])?
Its inhibition is “Active”.

Which results are given for CC(C)C[C@@H](CS(=O)(=O)F)NC(=O)[C@@H](N)[C@@H](C)OCc1ccccc1?
inhibition (HEK293 [1]): inactive; inhibition (HEK293 [2]): inactive; inhibition (HEK293 [3]): inactive

CC[C@H](C)[C@H](NC(=O)CN=[N+]=[N-])C(=O)N[C@H](C(=O)N[C@H](C(=O)N[C@@H](CC(C)C)CS(=O)(=O)F)[C@@H](C)O)[C@@H](C)CC was tested. Which inhibition (HEK293 [1]) did it give?
Its inhibition is “Active”.

And the inhibition (HEK293 [2])?
The inhibition was “Active”.

And the inhibition (HEK293 [3])?
The inhibition was “Active”.

For CC(C)C[C@@H](CS(=O)(=O)F)NC(=O)[C@H](CC(C)C)NC(=O)[C@H](CC(C)C)NC(=O)[C@H](Cc1ccccc1)N=[N+]=[N-], which inhibition (HEK293 [1]) is on record?
The inhibition was “Active”.

And the inhibition (HEK293 [2])?
Its inhibition is “Active”.

What about the inhibition (HEK293 [3]) of the same molecule?
Its inhibition is “Active”.

With CC[C@H](C)[C@H](NC(C)=O)C(=O)N[C@H](C(=O)N[C@H](C(=O)N[C@@H](CC(C)C)CS(=O)(=O)F)[C@@H](C)O)[C@@H](C)CC as the molecule, how does the inhibition (HEK293 [1]) read?
The inhibition was “Active”.

And the inhibition (HEK293 [2])?
Its inhibition is “Active”.

What about the inhibition (HEK293 [3]) of the same molecule?
Its inhibition is “Active”.

Which inhibition (HEK293 [1]) does the source give for CC(C)C[C@@H](CS(=O)(=O)F)NC(=O)[C@H](Cc1ccccc1)NC(=O)c1cnccn1 here?
The inhibition was “inactive”.

What about the inhibition (HEK293 [2]) of the same molecule?
The inhibition was “inactive”.

And the inhibition (HEK293 [3])?
Its inhibition is “inactive”.

For CC(C)C[C@@H](CS(=O)(=O)F)NC(=O)[C@H](CC(C)C)NC(=O)[C@H](CC(C)C)NC(=O)[C@@H](N)CC(C)C, which inhibition (HEK293 [1]) is on record?
The inhibition was “Active”.

And the inhibition (HEK293 [2])?
Its inhibition is “Active”.

And the inhibition (HEK293 [3])?
Its inhibition is “Active”.

What does the source list for CC[C@H](C)[C@H](N)C(=O)N[C@H](C(=O)N[C@@H](CC(C)C)CS(=O)(=O)F)[C@@H](C)O?
inhibition (HEK293 [1]): Active; inhibition (HEK293 [2]): Active; inhibition (HEK293 [3]): Active

With CC[C@H](C)[C@H](NC(=O)CN=[N+]=[N-])C(=O)N[C@H](C(=O)N[C@H](C(=O)N[C@@H](CC(C)C)CS(=O)(=O)F)[C@@H](C)OC(C)=O)[C@@H](C)CC as the molecule, how does the inhibition (HEK293 [1]) read?
The inhibition was “Active”.

And the inhibition (HEK293 [2])?
The inhibition was “Active”.

What about the inhibition (HEK293 [3]) of the same molecule?
The inhibition was “Active”.

How did the inhibition (HEK293 [1]) turn out when CC[C@H](C)[C@H](N)C(=O)N[C@H](C(=O)N[C@H](C(=O)N[C@@H](CC(C)C)CS(=O)(=O)F)[C@@H](C)O)[C@@H](C)CC was run?
Its inhibition is “Active”.

And the inhibition (HEK293 [2])?
Its inhibition is “Active”.

What about the inhibition (HEK293 [3]) of the same molecule?
The inhibition was “Active”.

Which results are given for CC[C@H](C)[C@H](N)C(=O)N[C@H](C(=O)N[C@@H](CC(C)C)CS(=O)(=O)F)[C@@H](C)OCc1ccccc1?
inhibition (HEK293 [1]): Active; inhibition (HEK293 [2]): Active; inhibition (HEK293 [3]): Active

CC(=O)N[C@@H](CC(C)C)C(=O)N[C@@H](CC(C)C)C(=O)N[C@@H](CC(C)C)C(=O)N[C@@H](CC(C)C)CS(=O)(=O)F was tested. Which inhibition (HEK293 [1]) did it give?
The inhibition was “Active”.

What about the inhibition (HEK293 [2]) of the same molecule?
The inhibition was “Active”.

And the inhibition (HEK293 [3])?
The inhibition was “Active”.
